Experimental findings from patent publication US11111245B2, “Derivatives of N-cycloalkyl/heterocycloalkyl-4-(imidazo[1,2-a]pyridine)pyrimidin-2-amine as therapeutic agents” (Aucentra Therapeutics Pty Ltd, priority 2017, dated 2021) are described below.

What is called Ki is the dissociation constant of the complex between target and ligand, obtained from inhibition or displacement.

One assay deals with T47D. Description: MTT cell viability assay, T47D breast cancer cell line (72 h). Type of assay: cell-based. The following applies: Homo sapiens, read-out: 72 h Antiproliferative activity, GI50 (μmol/L) ± SD. As for the experimental part:
(§1) Compounds from Example 1 were subjected to a standard MTT (3-(4,5-dimethylthiazol-2-yl)-2,5-diphenyltetrazolium bromide) and resazurin assays on solid tumour cell lines and leukemia cell lines, respectively, as previously reported (Wang S et al., J Med Chem 47:1662-1675, 2004 and Diab S. et al. CheMedChem 9:962-972, 2014). Compound concentrations required to inhibit 50% of cell growth (GI50) were calculated using non-linear regression analysis.

The next assay concerns MCF-7. In words: MTT cell viability assay, MCF-7 breast cancer cell line (72 h). Type of assay: cell-based. The following applies: Homo sapiens, MCF7, MCF-7, 72 h, read-out: 72 h Antiproliferative activity, GI50 (μmol/L) ± SD. On the procedure: as §1
A general note: Tetrazolium assays rely on reduction of a dye to a coloured formazan, in cell work by metabolically active cells.

Another assay relates to MDA-MB-231. Description: MTT cell viability assay, MDA-MB-231 breast cancer cell line (72 h). The following applies: Homo sapiens, MDA-MB-231, 72 h, read-out: 72 h Antiproliferative activity, GI50 (μmol/L) ± SD. Type of assay: cell-based. On the procedure:
as §1

In a further assay the test system is MDA-MB-453. In words: MTT cell viability assay, MDA-MB-453 breast cancer cell line (72 h). It is filed as cell-based. Particulars: Homo sapiens, MDA-MB-453, 72 h, read-out: 72 h Antiproliferative activity, GI50 (μmol/L) ± SD. On the procedure: as §1
In the next assay the test system is MDA-MB-468. Description: MTT cell viability assay, MDA-MB-468 breast cancer cell line (72 h). Particulars: Homo sapiens, MDA-MB-468, 72 h, read-out: 72 h Antiproliferative activity, GI50 (μmol/L) ± SD. Type of assay: cell-based. As for the experimental part:
as §1

The next assay deals with A2780. In words: MTT cell viability assay, A2780 ovarian cancer cell line (72 h). It is filed as cell-based. Particulars: Homo sapiens, A2780, 72 h, read-out: 72 h Antiproliferative activity, GI50 (μmol/L) ± SD. On the procedure:
as §1

A further assay deals with PC3. Description: MTT cell viability assay, PC3 prostate cancer cell line (72 h). Particulars: Homo sapiens, PC-3, PC3, 72 h, read-out: 72 h Antiproliferative activity, GI50 (μmol/L) ± SD. Type of assay: cell-based. As for the experimental part:
as §1

For another assay, the system named is MOLM13. Description: Resazurin cell viability assay, MOLM13 leukaemia cell line (72 h). It is filed as cell-based. The following applies: Homo sapiens, MOLM-13, MOLM13, 72 h, read-out: 72 h Antiproliferative activity, GI50 (μmol/L) ± SD. On the procedure: as §1
The next assay deals with NB4. In words: Resazurin cell viability assay, NB4 leukaemia cell line (72 h). It is filed as cell-based. Particulars: Homo sapiens, NB-4, NB4, 72 h, read-out: 72 h Antiproliferative activity, GI50 (μmol/L) ± SD. As for the experimental part: as §1
For another assay, the system named is U937. Description: Resazurin cell viability assay, U937 leukaemia cell line (72 h). Type of assay: cell-based. The following applies: Homo sapiens, U-937, U937, 72 h, read-out: 72 h Antiproliferative activity, GI50 (μmol/L) ± SD. On the procedure:
as §1
On the technique in general: Alamar Blue is a resazurin reagent that responds to reducing activity.

In a further assay the target is CDK4/D1 (Homo sapiens, UniProt P11802). In words: ADP Glo Kinase assay CDK4/D1. It is filed as biochemical. Particulars: CDK4D1; for Ki: read-out: CDK inhibition, Ki (μM) CDK4D1; for remaining activity at 10 µM: compound at 10 μM, read-out: residual activity (%) at 10 μM CDK4D1. Summed up:
(§2)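 In-house ADP-Glo assay: CDK4/D1 or CDK6/D3 with RB-CTF substrate in […] Tris pH 7.5, 20 mM MgCl2, 0.4 mM DTT, 0.1 mg/ml BSA; ATP-started, 40 min at 37° C.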
Background: ADP-Glo turns the ADP formed in a reaction into a luminescent signal.

A further assay has as its target CDK6/D3 (Homo sapiens, UniProt Q00534). In words: ADP Glo Kinase assay CDK6/D3. Type of assay: biochemical. The following applies: CDK6D3; for Ki: read-out: CDK inhibition, Ki (μM) CDK6D3; for remaining activity at 10 µM: compound at 10 μM, read-out: residual activity (%) at 10 μM CDK6D3. Summed up: as §2
The target in another assay is CDK9/T1 (Homo sapiens, UniProt P50750). Description: ADP Glo Kinase assay CDK9/T1. Type of assay: biochemical. The following applies: CDK9T1; read-out: CDK inhibition, Ki (μM) CDK9T1. Summed up:
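CDK4/D1 and CDK6/D3 were run in […] Tris pH 7.5, 20 mM MgCl2, 0.4 mM DTT, 0.1 mg/ml BSA with RB-CTF substrate; CDK9/T1 used RBER-IRStide. ATP-started reactions ran 40 min at 37° C, with ADP Glo luminescence read-out. IC50 came from 4-parameter fits; Ki from Km (ATP) and IC50.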

For assay [1], the target named is T1, CDKs and other kinases (Homo sapiens, UniProt P06493).
T1 construct: other: CDK1B; residual activity (%) at 10 μM CDK1B; compound at 10 μM
T1 sequence (P06493 whole entry): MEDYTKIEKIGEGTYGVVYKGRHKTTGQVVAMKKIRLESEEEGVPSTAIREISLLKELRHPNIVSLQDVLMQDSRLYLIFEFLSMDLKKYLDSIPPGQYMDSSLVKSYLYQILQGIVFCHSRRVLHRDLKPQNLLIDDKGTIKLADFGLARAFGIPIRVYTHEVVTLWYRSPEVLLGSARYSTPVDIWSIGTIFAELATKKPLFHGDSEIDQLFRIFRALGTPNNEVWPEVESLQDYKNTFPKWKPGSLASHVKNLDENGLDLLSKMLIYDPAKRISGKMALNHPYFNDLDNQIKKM
Description: Radiometric kinase assay (Eurofins Pharma Discovery or Reaction Biology Corporation Kinase Profiler). The following applies: CDK1B; for Ki: read-out: CDK inhibition, Ki (μM) CDK1B; for remaining activity at 10 µM: compound at 10 μM, read-out: residual activity (%) at 10 μM CDK1B. Type of assay: biochemical. The procedure, abridged:
(§3)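 Other CDKs and further kinases were profiled externally by radiometric assay. In-house ADP Glo assays covered CDK4/D1 and CDK6/D3 (RB-CTF substrate, pH 7.5 Tris buffer with MgCl2, DTT, BSA) and CDK9/T1 (RBER-IRStide substrate), 40 min at 37° C.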

Assay [2] deals with T2, CDKs and other kinases (Homo sapiens, UniProt P24941).
T2 construct: other: CDK2A; residual activity (%) at 10 μM CDK2A; compound at 10 μM
The description is as above. It is filed as biochemical. The following applies: CDK2A; for Ki: read-out: CDK inhibition, Ki (μM) CDK2A; for remaining activity at 10 µM: compound at 10 μM, read-out: residual activity (%) at 10 μM CDK2A. The procedure, abridged: as §3

In assay [3] the target is T3, CDKs and other kinases (Homo sapiens, UniProt P50613).
T3 construct: other: CDK7H; residual activity (%) at 10 μM CDK7H; compound at 10 μM
T3 sequence (P50613 whole entry): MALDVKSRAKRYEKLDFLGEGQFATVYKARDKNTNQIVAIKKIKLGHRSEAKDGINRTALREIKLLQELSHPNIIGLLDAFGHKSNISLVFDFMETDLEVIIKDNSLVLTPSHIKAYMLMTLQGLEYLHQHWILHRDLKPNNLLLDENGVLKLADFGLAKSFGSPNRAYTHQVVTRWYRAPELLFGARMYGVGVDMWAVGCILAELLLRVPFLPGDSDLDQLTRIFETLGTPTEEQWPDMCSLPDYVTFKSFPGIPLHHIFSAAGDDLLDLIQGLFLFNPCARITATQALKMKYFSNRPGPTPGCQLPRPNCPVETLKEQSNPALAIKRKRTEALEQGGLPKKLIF
The assay is described as above. The following applies: CDK7H; for Ki: read-out: CDK inhibition, Ki (μM) CDK7H. Type of assay: biochemical. Summed up:
as §3

Another assay has as its system leukemia cell lines. In words: Resazurin cell viability assay on leukemia cell lines (72 h growth inhibition, GI50). It is filed as cell-based. The following applies: Homo sapiens, MV4-11 cells. Summed up: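 MTT assay for solid tumour lines and resazurin assay for leukaemia lines, run by reported methods. GI50, the concentration giving 50% growth inhibition, was obtained by non-linear regression.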

A further assay relates to LNCap. In words: MTT cell viability assay, LNCap prostate cancer cell line (72 h). It is filed as cell-based. The following applies: Homo sapiens, read-out: 72 h Antiproliferative activity, GI50 (μmol/L) ± SD. On the procedure: as §1

CDK6/D3, sequence (Q00534 whole entry): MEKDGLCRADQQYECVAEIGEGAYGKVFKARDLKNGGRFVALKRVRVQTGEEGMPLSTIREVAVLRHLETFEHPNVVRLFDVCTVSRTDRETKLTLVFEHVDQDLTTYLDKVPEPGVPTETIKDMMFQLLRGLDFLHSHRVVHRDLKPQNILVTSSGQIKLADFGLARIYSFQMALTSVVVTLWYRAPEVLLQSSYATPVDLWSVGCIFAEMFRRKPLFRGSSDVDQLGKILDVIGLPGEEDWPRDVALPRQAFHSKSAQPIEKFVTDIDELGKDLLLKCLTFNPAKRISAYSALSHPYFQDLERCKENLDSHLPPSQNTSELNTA
CDK6/D3, sequence (P30281 whole entry partner): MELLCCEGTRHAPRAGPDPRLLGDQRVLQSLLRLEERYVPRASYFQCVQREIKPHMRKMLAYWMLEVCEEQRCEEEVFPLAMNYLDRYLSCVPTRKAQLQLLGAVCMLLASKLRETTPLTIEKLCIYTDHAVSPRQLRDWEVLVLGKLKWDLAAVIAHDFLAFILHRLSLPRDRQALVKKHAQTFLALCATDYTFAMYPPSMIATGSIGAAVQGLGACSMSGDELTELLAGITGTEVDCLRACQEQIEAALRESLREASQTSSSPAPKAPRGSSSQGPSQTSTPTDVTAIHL
CDK4/D1, sequence (P11802 whole entry): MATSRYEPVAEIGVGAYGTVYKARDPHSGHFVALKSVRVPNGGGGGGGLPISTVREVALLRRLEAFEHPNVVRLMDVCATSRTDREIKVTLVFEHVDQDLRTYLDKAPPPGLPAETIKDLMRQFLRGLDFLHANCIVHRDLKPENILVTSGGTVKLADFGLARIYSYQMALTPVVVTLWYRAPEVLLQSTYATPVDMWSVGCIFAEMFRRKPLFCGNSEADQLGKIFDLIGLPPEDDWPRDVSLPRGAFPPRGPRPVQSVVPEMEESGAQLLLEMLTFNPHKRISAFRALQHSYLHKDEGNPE
CDK4/D1, sequence (P24385 whole entry partner): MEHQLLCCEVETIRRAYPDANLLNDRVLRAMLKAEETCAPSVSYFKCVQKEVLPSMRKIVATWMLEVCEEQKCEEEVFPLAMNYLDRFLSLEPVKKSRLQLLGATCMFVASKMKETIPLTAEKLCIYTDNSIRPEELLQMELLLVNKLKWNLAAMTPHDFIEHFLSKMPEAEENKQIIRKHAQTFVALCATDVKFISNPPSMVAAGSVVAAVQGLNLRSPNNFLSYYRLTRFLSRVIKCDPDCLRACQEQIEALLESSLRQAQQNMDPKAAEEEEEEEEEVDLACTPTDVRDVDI
CDK9/T1, sequence (P50750 whole entry): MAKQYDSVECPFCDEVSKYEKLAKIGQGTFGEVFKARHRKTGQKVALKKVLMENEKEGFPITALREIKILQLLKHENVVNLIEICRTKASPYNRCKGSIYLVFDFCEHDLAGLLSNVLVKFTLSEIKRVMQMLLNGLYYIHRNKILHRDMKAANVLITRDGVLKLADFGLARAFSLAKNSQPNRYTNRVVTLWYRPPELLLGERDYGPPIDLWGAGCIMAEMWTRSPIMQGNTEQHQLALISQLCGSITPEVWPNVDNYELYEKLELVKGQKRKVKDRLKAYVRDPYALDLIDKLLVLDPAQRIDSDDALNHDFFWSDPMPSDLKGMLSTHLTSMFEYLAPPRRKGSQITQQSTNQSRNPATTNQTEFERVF
CDK9/T1, sequence (O60563 whole entry partner): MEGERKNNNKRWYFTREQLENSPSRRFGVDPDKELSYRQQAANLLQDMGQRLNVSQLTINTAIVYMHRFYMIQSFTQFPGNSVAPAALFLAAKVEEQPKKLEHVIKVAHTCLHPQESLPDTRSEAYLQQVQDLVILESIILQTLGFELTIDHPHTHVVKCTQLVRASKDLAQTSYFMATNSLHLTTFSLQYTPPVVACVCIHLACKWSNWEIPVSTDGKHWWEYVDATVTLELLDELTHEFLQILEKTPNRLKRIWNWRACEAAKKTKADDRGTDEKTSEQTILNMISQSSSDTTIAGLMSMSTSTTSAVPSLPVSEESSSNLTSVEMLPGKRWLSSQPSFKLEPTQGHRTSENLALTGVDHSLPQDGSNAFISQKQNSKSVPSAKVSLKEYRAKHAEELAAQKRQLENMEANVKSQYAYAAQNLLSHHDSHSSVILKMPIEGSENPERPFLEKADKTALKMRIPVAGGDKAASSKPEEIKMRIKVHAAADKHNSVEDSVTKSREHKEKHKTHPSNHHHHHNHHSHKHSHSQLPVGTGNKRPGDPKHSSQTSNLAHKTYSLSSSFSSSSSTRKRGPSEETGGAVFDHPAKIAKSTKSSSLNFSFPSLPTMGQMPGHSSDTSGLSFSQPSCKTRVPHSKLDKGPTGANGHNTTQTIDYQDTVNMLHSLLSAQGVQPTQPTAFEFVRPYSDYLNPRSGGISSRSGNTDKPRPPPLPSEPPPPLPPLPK

Regarding `N[C@H]1CC[C@H](Nc2ncc(F)c(-c3cnc4ccc(NCc5ccc(F)cc5)cn34)n2)CC1` [Compound 7, (1r,4r)-N^1-(5-Fluoro-4-(6-((4-fluorobenzyl)amino)imidazo [1,2-a]pyridin-3-yl)pyrimidin-2-yl)cyclohexane-1,4-diamine], the GI50 was 0.616 ± 0.086 µmol/L in the assay with T47D; 0.218 ± 0.013 µmol/L in the assay with MCF-7; 0.035 ± 0.008 µmol/L in the assay with MDA-MB-231; 0.931 ± 0.269 µmol/L in the assay on MDA-MB-453; 0.08 ± 0.015 µmol/L in the assay on MDA-MB-468; 0.274 ± 0.03 µmol/L in the assay on A2780. In addition, the GI50 with PC3 came out at 0.087 ± 0.04 µmol/L; in the assay on MOLM13, 0.015 ± 0.006 µmol/L; in the assay with NB4, 0.16 ± 0.052 µmol/L; with U937, 0.156 ± 0.061 µmol/L; in the assay with leukemia cell lines, 0.075 ± 0.011 µM. Also, the Ki at CDK4/D1 came to 0.691 µM; on CDK6/D3, 1.71 µM; on CDK9/T1 it was 0.006 µM; at CDKs and other kinases [1], 0.42 µM; on CDKs and other kinases [2], 0.24 µM; on CDKs and other kinases [3], 0.73 µM.
As for `Cc1cnc(N[C@H]2CC[C@H](N)CC2)nc1-c1cnc2ccc(-c3ccccc3)cn12` [Compound 10, (1r,4r)-N^1-(5-Methyl-4-(6-phenylimidazo[1,2-a]pyridin-3-yl)pyrimidin-2-yl)cyclohexane-1,4-diamine], the GI50 with T47D was 0.834 ± 0.066 µmol/L; with MCF-7, 0.247 ± 0.014 µmol/L; in the assay with MDA-MB-231 it was 0.418 ± 0.123 µmol/L; in the assay on MDA-MB-453, 0.049 ± 0.012 µmol/L; in the assay on MDA-MB-468, 0.42 ± 0.07 µmol/L; in the assay with A2780, 0.278 ± 0.032 µmol/L. Moreover, the GI50 was 0.289 ± 0.098 µmol/L in the assay with PC3; 0.202 ± 0.052 µmol/L in the assay with LNCap; 0.019 ± 0.001 µmol/L with MOLM13; 0.153 ± 0.051 µmol/L in the assay on NB4; 0.156 ± 0.05 µmol/L in the assay with U937; 0.059 ± 0.008 µM in the assay on leukemia cell lines. For the same compound, the Ki was 2.62 µM on CDK4/D1; 1.54 µM at CDK6/D3; 0.008 µM at CDK9/T1; 1.53 µM at CDKs and other kinases [1]; 0.43 µM at CDKs and other kinases [2]; 0.6 µM on CDKs and other kinases [3].
Take `Cc1cnc(N[C@H]2CC[C@H](N)CC2)nc1-c1cnc2cc(C(F)(F)F)c(Br)cn12` [Compound 114, (1r,4r)-N^1-(4-(6-Bromo-7-(trifluoromethyl)imidazo [1,2-a]pyridin-3-yl)-5-methylpyrimidin-2-yl) cyclohexane-1,4-diamine]: the remaining activity at 10 µM came out at 8% at CDK4/D1; 40% on CDK6/D3; 53% on CDKs and other kinases [1]; 28% on CDKs and other kinases [2]. Moreover, the Ki on CDK9/T1 stood at 0.005 µM; at CDKs and other kinases [3], 0.075 µM. This compound also came in with a GI50 with leukemia cell lines of 0.026 ± 0.009 µM.
Consider `Cc1cnc(N[C@H]2CC[C@H](N)CC2)nc1-c1cnc2ccc(Nc3cncnc3)cn12` [Compound 115, (1r,4r)-N^1-(5-Methyl-4-(6-(pyrimidin-5-ylamino)imidazo [1,2-a]pyridin-3-yl)pyrimidin-2-yl)cyclohexane-1,4-diamine], for which the Ki at CDK4/D1 was found to be 1.24 µM; on CDK6/D3, 1.11 µM; at CDK9/T1, 0.006 µM; at CDKs and other kinases [1] it was 1.35 µM; at CDKs and other kinases [2], 0.14 µM; at CDKs and other kinases [3], 4 µM. Moreover, the GI50 in the assay on leukemia cell lines came to 0.552 ± 0.166 µM.
Regarding `N[C@H]1CC[C@H](Nc2ncc(F)c(-c3cnc4ccc(-c5ccc(C(=O)N6CCNCC6)cc5)cn34)n2)CC1` [Compound 117, (4-(3-(2-(((1r,4r)-4-Aminocyclohexyl)amino)-5-fluoropyrimidin-4-yl)imidazo[1,2-a]pyridin-6-yl)phenyl) (piperazin-1-yl)methanone], the remaining activity at 10 µM at CDK4/D1 worked out at 0%; at CDK6/D3, 12%; on CDKs and other kinases [1], 10%; at CDKs and other kinases [2], 4%; at CDKs and other kinases [3] (compound at 10 μM, read-out: residual activity (%) at 10 μM CDK7H) it was 5%. Further, the Ki on CDK9/T1 turned out to be 0.004 µM. For the same compound, the GI50 in the assay on leukemia cell lines was found to be 0.045 ± 0.004 µM.
